Consider one compound from paper PMC6163344, “A Novel Cell Penetrating Peptide for the Differentiation of Human Neural Stem Cells” (Biomolecules, 2018).

In data set [1] the test system is ReNcell VM (RVM) cells. Nature of the data set: 24 h cytotoxicity, CCK-8 (WST-8) or PrestoBlue. The settings on record: 24 h treatment. It is filed as cell-based, human. The protocol:
Sterile peptide solutions for cytotoxicity testing were prepared from stock by diluting with deionized (DI) water and filtering through a 0.22 µm polytetrafluoroethylene (PTFE) membrane. Because of aggregations and decreased solubility in water at high concentrations, a standard curve was used to determine the concentrations of the filtered peptides. Briefly, 5 µL of sample or serial diluted peptide stocks with known concentrations prepared from weighed powder, were aliquoted into wells of a 96-well half area plate. Then, 45 µL of methanol was added to each well to fully solubilize all the peptides. Absorbance measurements at 554 nm (650 nm as reference) were taken on a Tecan infinite M200 Pro plate reader (Tecan Group, Männedorf, Switzerland). After the calculation of stock concentrations, peptides were further diluted with cell culture media for treatment.
There were 10,000 ReNcell VM cells (passages below 15) that were seeded in each well, with 100 µL of RVM cell culture media supplemented with the growth factors bFGF and EGF.
For the PepB series (Figure 1 and Table 1) testing, the RVM cells were incubated with peptides for 24 h. […] After incubation for 1 h, for WST-8, a Tecan infinite M200 Pro plate reader was utilized to acquire absorbance measurements at 450 nm (650 nm as reference) and normalized to the untreated controls.
A general note: Tetrazolium assays rely on reduction of a dye to a coloured formazan, in cell work by metabolically active cells.

Data set [2] relates to β-III tubulin expression in ReNcell VM. The data set can be described thus: RVM differentiation, quantitative immunocytochemistry for β-III tubulin. The settings on record: 0.1 µM, N = 3. Format: cell-based, human. The procedure: (§1) The laminin solution was removed prior to cell seeding. 2 × 10^4 ReNcell VM between passages 8 and 10 were seeded in the 8-well chamber slides with 400 µL of proliferation media. The cells were grown to 70% confluency. Differentiation for RVM is initiated by growth factor withdrawal or in combination with RA or RA-PepB3. The media were replaced every 48–72 h for the duration of the differentiation. Compound treatment was only performed for one week, at which point all cells were commonly grown in growth factor withdrawal media.
(§2) Cells were fixed with 4% PFA at room temperature for 15 min. After rinsing with PBS, blocking and permeabilization were done simultaneously using 5% donkey serum and 0.3% Triton-X 100 in PBS for 30 min at room temperature. The cells were rinsed with PBS and primary antibodies were applied for 2 h at room temperature. The cells were rinsed again with PBS and secondary antibodies were applied for 1 h at room temperature. […] The cells positive for β-III tubulin and MAP2 were counted using ImageJ. […] The fluorescence channels were separated, background removed, and contrast enhanced. The number of DAPI positive cells were counted using an in-house coded nuclei counter. […] The channels were then re-merged and the cells positive for β-III tubulin and MAP2 were manually counted. […]

For data set [3], the system named is MAP2 expression in ReNcell VM. The data set can be described thus: RVM differentiation, quantitative immunocytochemistry for MAP2. It is filed as cell-based, human. The settings on record: 0.1 µM, compound treatment for the initial one week, four weeks of differentiation, N = 3. The procedure:
as §1, §2

Data set [4] concerns ReNcell VM (RVM) cells. Conditions: PrestoBlue, N = 3.
Details of data set [5]: method as in PMID 1898007. Conditions: reported solubility limit in water; cited from earlier work. The text has this: Neurogenesis is an important biological process under intense investigation. Neurodegenerative diseases such as Alzheimer’s and Parkinson’s are devastating due to the fact that neurons cannot be replaced in the diseased areas of the brain [1]. […] To exert its effects ... || Retinoic acid is a potent morphogen used to differentiate stem cells towards the neural lineage.

Data set [6] relates to undifferentiated RVM cells cultured in Matrigel. Conditions: microarray chip, read-out: viability IC50; cited from earlier work.

For orientation: IC50 means the concentration that gives 50% inhibition. For the compound `CC1=C(/C=C/C(C)=C/C=C/C(C)=C/C(=O)O)C(C)(C)CCC1` [RA, All-Trans-Retinoic Acid], the “fraction of RVM cells killed” value in the data set with ReNcell VM (RVM) cells [1] (10 µM, PrestoBlue or Cell Counting Kit-8, N = 3) is “more than 50%”. In addition, in the data set on ReNcell VM (RVM) cells [1] (0–10 µM tested, N = 3), the “concentration at which RVM cells started significantly dying” value is recorded as 5 µM. For the same compound, the “β-III tubulin expression, fold versus growth factor withdrawal control” value in data set [2] (compound treatment for the initial one week, four weeks of differentiation) turned out to be 2 fold. In data set [2] (one week of differentiation), the “β-III tubulin expression, fold versus no growth factor control” value came to 1.5 fold. In addition, in data set [3], the “MAP2 expression, fold versus control” value was found to be 2.5 fold. Also, the “proliferation versus controls after 24 h” value in the data set with ReNcell VM (RVM) cells [4] (5 and 10 µM RA) is given as “significantly less proliferation than the controls”. The “proliferation versus controls by day three” value in the data set with ReNcell VM (RVM) cells [4] (all tested concentrations of RA, medium refreshed every 48 h) was “significantly reduced rates of proliferation”. The “solubility in aqueous environments” value in data set [5] is under 0.2 µM. For the same compound, in data set [6], the IC50 is 0.74 µM.
